Assay results published in paper PMC6100113, “Involvement of CYP4F2 in the Metabolism of a Novel Monophosphate Ester Prodrug of Gemcitabine and Its Interaction Potential In Vitro” (Molecules : A Journal of Synthetic Chemistry and Natural …, 2018).
pIC50: −log10 of the molar value.

Key:
Stability in rat plasma = format: in vitro ADME; conditions: 1 μM, 37 °C
Method: (§1) For stability testing in plasma, the reaction was started with the addition of Compound-3 (1 µM). At specified time points, aliquots of 25 µL of the reaction mixtures were transferred into 100 μL ice-cold acetonitrile containing the internal standard. The samples were then centrifuged, and aliquots of 10 µL of the supernatants were transferred onto LC-MS/MS for the analysis of Compound-3 levels.

[1] = Metabolic stability in human hepatocytes; format: in vitro ADME; conditions: human hepatocytes 1 × 10^6 cell/mL, 1 μM, 37 °C
Method: as §1, with “evaluation” for “testing”, “human hepatocytes, cryopreserved primary human hepatocytes were revived according to vendor’s protocol and diluted to a density of 1 × 10^6 cell/mL with William’s Medium. The” for “plasma, the”, “μM).” for “µM).”, “μL” for “µL”, “levels and its metabolites.” for “levels.”

alkaline phosphatase = test: Hydrolysis of Compound-3 by alkaline phosphatase (gemcitabine formation); format: in vitro ADME; set-up: key to detected in matrix ALP: √: metabolites were detected by high-resolution mass spectrometry
Method: Compound-3 was incubated with alkaline phosphatase, and the linearity of gemcitabine formation as a function of time and protein concentration was first examined. The reaction mixtures consisted of alkaline phosphatase, 100 mM phosphate buffer (pH 7.4) and Compound-3 (10 μM). The final volume of the incubation mixture was 200 μL. The mixture was warmed up at 37 °C for 2 min prior to the initiation of the reaction with the addition of the enzyme. At specified time points, 25 μL of the incubation mixtures was added to 100 μL cold acetonitrile containing the internal standard to terminate the reaction. Levels of gemcitabine were determined by LC-MS/MS. […] Compound-3 was tested at concentrations ranging from 0 to 200 μM. Kinetic parameters of Compound-3 in alkaline phosphatase were calculated using GraphPad Prism (Version 6.0, GraphPad Software Inc., San Diego, CA) and nonlinear regression analysis. Equation used was as the following (the Michaelis-Menten equation):V = (Vmax × [S])/(Km + [S])(1) where V is the rate of metabolite formation, Vmax is the maximum velocity, Km is the Michaelis constant (substrate concentration at 0.5 Vmax), and [S] is the substrate concentration.

[2] = Metabolite identification by UPLC/Triple TOF MS in human intestinal microsomes; format: in vitro ADME; set-up: key: √: metabolites were detected by high-resolution mass spectrometry; conditions: Compound-3 10 μM, NADPH, 60 min, HRMS
Method: For metabolite identification, a higher concentration of Compound-3 (10 μM) was incubated with liver microsomes (1 mg/mL) in the presence of NADPH (1 mM) and primary human hepatocytes at a density of 1 × 10^6 cell/mL. Samples were collected at 0 min and 60 min with the addition of ice-cold acetonitrile. After vortexing and centrifugation, the supernatant was transferred into a new tube and evaporated to dryness. The samples were then reconstituted in 100 μL of water and methanol (v/v, 9:1). An aliquot of 10 μL of reconstituted solution was injected into UPLC/Triple TOF 5600^+ MS for metabolite identification.
Identification of Compound-3 metabolites was carried out using Acquity UPLC/Triple TOF 5600^+ system. Chromatographic separation for Compound-3 and its metabolites were achieved by an Acquity UPLC HSS T3 column (100 × 2.1 mm i.d., […]; Waters Corp.) maintained at 40 °C. The mobile phase was a mixture of 0.02% formic acid in 5 mM ammonium acetate (A) and methanol (B). The gradient elution was started from 2% B and maintained for 4 min, then increased linearly to 75% B over the next 4 min and maintained for 8 min. […] The flow rate was 0.4 mL/min and the eluent was monitored by UV detection at 280 nm.
For mass detection, a Triple TOF 5600^+ mass spectrometer (AB Sciex, Framingham, MA, USA) was operated in positive ion electrospray (ES-positive) mode with the source temperature at 500 °C and scan range from m/z 100 to 1000 Da. Other parameters were set as follows: ion spray voltage, 5500 V; decluttering potential, 80 V; curtain gas, 40 psi; ion source gas 1, 55 psi; and ion source gas 2, 50 psi. Collision energies of 25 and 65 eV were used for TOF MS and product ion scans, respectively, and a collision energy spread of 20 was used in the MS/MS analysis. Information-dependent acquisition (IDA), together with real-time multiple mass defect filter, was used to trigger acquisition of MS/MS spectra.

CYP4F2 = biological target: T1, CYP4F2 (Homo sapiens, UniProt P78329); test: CYP4F2-mediated drug interaction (inhibition of CYP4F2); format: in vitro ADME; conditions: substrate pafuramidine 1.5 μM, CYP4F2 10 nM, 5 min, DB775 formation; read-out: IC50, inhibition of CYP4F2 mediated metabolism of pafuramidine
T1 construct: purchased Corning Gentest
T1 sequence (P78329 5-520): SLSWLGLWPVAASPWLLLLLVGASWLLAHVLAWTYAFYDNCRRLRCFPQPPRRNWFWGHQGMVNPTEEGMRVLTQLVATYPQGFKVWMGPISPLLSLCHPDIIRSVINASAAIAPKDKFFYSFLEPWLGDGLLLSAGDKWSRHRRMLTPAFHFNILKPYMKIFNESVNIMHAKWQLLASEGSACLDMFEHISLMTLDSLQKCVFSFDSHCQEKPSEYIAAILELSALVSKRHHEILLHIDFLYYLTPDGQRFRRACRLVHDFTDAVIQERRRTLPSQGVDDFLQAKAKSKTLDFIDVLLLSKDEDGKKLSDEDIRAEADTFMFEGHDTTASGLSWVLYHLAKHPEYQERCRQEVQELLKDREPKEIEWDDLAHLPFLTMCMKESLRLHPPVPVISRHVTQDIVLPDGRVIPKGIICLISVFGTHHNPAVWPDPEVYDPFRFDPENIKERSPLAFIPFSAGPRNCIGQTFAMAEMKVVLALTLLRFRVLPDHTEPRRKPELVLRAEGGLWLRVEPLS
Method: CYP4F2-mediated drug interactions were examined in two separate setting: pafuramidine as the substrate and Compound-3 as the inhibitor; and Compound-3 as the substrate and pafuramidine as the inhibitor. The reaction system contained 10 nM CYP4F2, 100 mM phosphate buffer (pH 7.4), 1 mM NADPH, and substrate (pafuramidine 1.5 μM or Compound-3 1 μM). Inhibitor (Compound-3 or pafuramidine) concentrations ranged from 0 to 10,000 nM. The incubation time was 5 min for pafuramidine and 10 min for Compound-3. Incubation temperature was 37 °C. LC-MS/MS analysis was performed as described above for the levels of DB775 or M4 (carboxylic acid metabolite of Compound-3).

tumor = conditions: in vitro and in vivo testing in the preclinical setting; cited from earlier work
[3] = alkaline phosphatase 0.1 mg/mL protein, 60 min, 37 °C, Michaelis-Menten

Q: For `CCCCCCCCCCCCCCCCCCOCCOP(=O)(O)OCC1OC(n2ccc(N)nc2=O)C(F)(F)C1O` (centres unmarked) [Compound-3], which disappearance in plasma (Stability in rat plasma) is on record?
A: did not display noticeable disappearance

Q: And the “disappearance after 60 min incubation” value [1]?
A: ~ 30%

Q: And the Km (alkaline phosphatase; [3])?
A: 57.2 µM

Q: And the “Vmax of gemcitabine formation” value (alkaline phosphatase; [3])?
A: 60.8 pmol/min/mg-protein

Q: And the “detected in matrix ALP” value (alkaline phosphatase; incubation of Compound-3 with alkaline phosphatase, HRMS)?
A: √

Q: And the “detected in matrix HIM” value [2]?
A: √

Q: And the pIC50 (CYP4F2)?
A: 7.00

Q: And the “antitumor activity as compared to gemcitabine itself and LY2334737” value (tumor)?
A: enhanced antitumor activity
